A short description of assay [1]: Antiplatelet activity in human platelet rich plasma assessed as inhibition of ADP-induced platelet aggregation by Born's method. It is filed as functional.
Assay [2] deals with Integrin alpha-IIb/beta-3 (Homo sapiens, UniProt P05106+P08514). The assay is described as follows: Inhibition of FITC-labelled fibrinogen binding to integrin alpha2b beta3 receptor in human platelet cells. It is filed as cell-based.
Sequence of Integrin alpha-IIb/beta-3 (P05106 27-788 limits assumed): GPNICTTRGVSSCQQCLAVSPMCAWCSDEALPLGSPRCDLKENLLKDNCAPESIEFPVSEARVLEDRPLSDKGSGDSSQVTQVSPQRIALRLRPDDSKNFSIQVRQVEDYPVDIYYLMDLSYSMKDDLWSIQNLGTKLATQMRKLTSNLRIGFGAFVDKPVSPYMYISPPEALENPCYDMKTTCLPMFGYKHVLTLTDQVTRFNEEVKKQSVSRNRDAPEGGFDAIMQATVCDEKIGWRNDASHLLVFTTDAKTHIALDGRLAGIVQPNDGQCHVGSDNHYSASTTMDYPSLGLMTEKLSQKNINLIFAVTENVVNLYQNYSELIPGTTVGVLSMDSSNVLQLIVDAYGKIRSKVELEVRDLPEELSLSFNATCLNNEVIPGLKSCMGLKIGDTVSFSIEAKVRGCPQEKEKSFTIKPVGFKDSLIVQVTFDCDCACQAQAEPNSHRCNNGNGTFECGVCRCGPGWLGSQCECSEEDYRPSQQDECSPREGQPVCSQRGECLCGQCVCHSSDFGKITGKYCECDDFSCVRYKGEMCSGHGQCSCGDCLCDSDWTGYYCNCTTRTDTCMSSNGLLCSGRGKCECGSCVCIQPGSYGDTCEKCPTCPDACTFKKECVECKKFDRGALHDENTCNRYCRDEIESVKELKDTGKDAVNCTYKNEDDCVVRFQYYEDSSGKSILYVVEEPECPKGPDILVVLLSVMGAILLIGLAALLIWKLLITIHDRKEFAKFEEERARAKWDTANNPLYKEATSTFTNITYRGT
Sequence of Integrin alpha-IIb/beta-3 (P08514 32-887 limits assumed): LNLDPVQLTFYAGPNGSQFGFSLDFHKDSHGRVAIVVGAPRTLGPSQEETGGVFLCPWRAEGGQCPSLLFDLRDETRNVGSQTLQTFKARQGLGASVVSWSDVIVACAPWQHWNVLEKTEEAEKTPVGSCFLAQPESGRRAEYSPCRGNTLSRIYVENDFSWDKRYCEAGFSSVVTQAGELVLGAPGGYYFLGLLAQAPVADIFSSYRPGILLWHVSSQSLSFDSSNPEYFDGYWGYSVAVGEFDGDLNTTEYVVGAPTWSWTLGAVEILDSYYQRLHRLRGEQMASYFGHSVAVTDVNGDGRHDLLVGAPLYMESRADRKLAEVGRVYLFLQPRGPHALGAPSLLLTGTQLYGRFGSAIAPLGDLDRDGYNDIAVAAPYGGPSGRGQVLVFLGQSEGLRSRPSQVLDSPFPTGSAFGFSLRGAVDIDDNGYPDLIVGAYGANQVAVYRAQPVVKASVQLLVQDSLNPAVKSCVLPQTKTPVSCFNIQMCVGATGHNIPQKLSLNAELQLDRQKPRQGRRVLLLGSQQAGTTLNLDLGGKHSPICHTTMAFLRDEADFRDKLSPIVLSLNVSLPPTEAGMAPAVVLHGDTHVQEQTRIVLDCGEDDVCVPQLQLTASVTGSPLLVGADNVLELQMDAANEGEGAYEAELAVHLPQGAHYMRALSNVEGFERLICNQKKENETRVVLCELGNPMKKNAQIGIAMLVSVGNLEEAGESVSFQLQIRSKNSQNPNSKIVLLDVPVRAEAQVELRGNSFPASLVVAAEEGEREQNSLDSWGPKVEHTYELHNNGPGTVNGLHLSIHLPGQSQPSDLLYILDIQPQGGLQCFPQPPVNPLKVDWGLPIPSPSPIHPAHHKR
Sequence of Integrin alpha-IIb/beta-3 (P08514 891-1039 limits assumed): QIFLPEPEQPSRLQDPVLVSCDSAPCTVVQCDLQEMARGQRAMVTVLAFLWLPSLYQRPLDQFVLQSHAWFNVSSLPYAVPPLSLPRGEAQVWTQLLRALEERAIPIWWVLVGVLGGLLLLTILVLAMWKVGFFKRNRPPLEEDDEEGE

Take `NCCCC(=O)Nc1ccc2nc(N3CCNCC3)nc(-c3ccccc3)c2c1`: the IC50 in assay [1] turned out to be 49 nM. With `CCC(=O)Nc1ccc2nc(N3CCNCC3)[nH]c(=O)c2c1`, the IC50 in assay [2] was 55 nM; in assay [1] it was 170 nM. For the compound `NCCCCCC(=O)Nc1ccc2nc(N3CCNCC3)[nH]c(=O)c2c1`, the IC50 in assay [1] was found to be 1300 nM. With `O=C(Nc1ccc2nc(N3CCNCC3)[nH]c(=O)c2c1)c1ccc(N2CCNCC2)cc1`, the IC50 in assay [2] worked out at 20 nM; in assay [1], 1300 nM. In the case of `NC[C@H](NC(=O)OCc1ccccc1)C(=O)Nc1ccc2nc(N3CCNCC3)[nH]c(=O)c2c1`, the IC50 in assay [2] worked out at 1.53 nM; in assay [1] it was 19 nM. As to `NCc1ccc(C(=O)Nc2ccc3nc(N4CCNCC4)[nH]c(=O)c3c2)cc1`, in assay [1], the IC50 was found to be 1900 nM. For `CC(C)COC(=O)N[C@@H](CN)C(=O)Nc1ccc2nc(N3CCNCC3)[nH]c(=O)c2c1`, the IC50 worked out at 1.8 nM in assay [2] and 40 nM in assay [1]. On to `NCCC(=O)Nc1ccc2nc(N3CCNCC3)nc(-c3ccccc3)c2c1`, for which the IC50 in assay [1] is 570 nM. Same read-out and setting: as for `NCCCCCC(=O)Nc1ccc2nc(N3CCNCC3)nc(-c3ccccc3)c2c1`, the figure is 58000 nM. The same measure, in the same setting: as for `CCOC(=O)N[C@@H](CN)C(=O)Nc1ccc2nc(N3CCNCC3)[nH]c(=O)c2c1`, the figure is 60 nM; as for `NCCCCC(=O)Nc1ccc2nc(N3CCNCC3)nc(-c3ccccc3)c2c1`, 48000 nM; as for `O=C(Nc1ccc2nc(N3CCNCC3)[nH]c(=O)c2c1)c1ccc(C2CCNCC2)cc1`, 570 nM.

For `NCCCCC(=O)Nc1ccc2nc(N3CCNCC3)[nH]c(=O)c2c1`, the IC50 in assay [1] is 1400 nM. Consider `CCC(=O)Nc1ccc2nc(N3CCNCC3)nc(-c3ccccc3)c2c1`, for which the IC50 in assay [1] was 720 nM. Turning to `NCC[C@H](NC(=O)OCc1ccccc1)C(=O)Nc1ccc2nc(N3CCNCC3)[nH]c(=O)c2c1`, the IC50 in assay [2] was 1.57 nM; in assay [1] it was 10 nM. `CCCCS(=O)(=O)N[C@@H](Cc1ccc(OCCCCC2CCNCC2)cc1)C(=O)O` [TIROFIBAN]: the IC50 in assay [1] was found to be 30 nM.

By IC50 is commonly meant the point on the concentration scale where inhibition reaches its midpoint.

Source of the values: ChEMBL document CHEMBL3785050, “Synthesis, biological evaluation and molecular docking studies of 2-piperazin-1-yl-quinazolines as platelet aggregation inhibitors and ligands of integrin αIIbβ3” (Bioorg Med Chem Lett, 2016).
